The test deals with T1, human Kv72+3 channels (Homo sapiens, UniProt O43525+O43526).
T1 construct: expressed in transfected cells
Nature of the test: Patch-clamp on HEK293 cells stably expressing human Kv7.2+3 channels. It is filed as cell-based. Conditions: conc. 0.03 μM, −30 mV, 20 ms, current relative to baseline current defined as 100%, read-out: IK (%). An excerpt:
The effect obtained by these channel activators is described as a percentage increase in baseline current at a given concentration. The baseline current is defined as 100%, and an increase in current is expressed relative to this, i.e. an increase from 1 nA to 1.2 nA is reported as 120%.
In general terms: Patch clamp records ionic current or voltage across a cell membrane.

For `O=C(Cc1ccc(C(F)(F)F)c(F)c1)Nc1ccc(NCc2ccc(F)cc2)nc1N1CCCC1` [Compound 1, N-[6-(4-Fluoro-benzylamino)-2-pyrrolidin-1-yl-pyridin-3-yl]-2-(3-fluoro-4-trifluoromethyl-phenyl)-acetamide], the activity at 0.03 µM is 306%.

Turning to `O=C(Nc1ccc(NCc2ccc(F)cc2)nc1N1CCCC1)[C@@H]1C[C@H]1c1ccccc1` [Compound 7, (R)-2-Phenyl-cyclopropanecarboxylic acid [6-(4-fluoro-benzylamino)-2-pyrrolidin-1-yl-pyridin-3-yl]-amide], the activity at 0.03 µM was determined as 192%. For the molecule `CC(C)(C)CC(=O)Nc1ccc(NCc2ccc(F)cc2)nc1N1CCCC1` [Compound 9, N-[6-(4-Fluoro-benzylamino)-2-pyrrolidin-1-yl-pyridin-3-yl]-3,3-dimethyl-butyramide], the activity at 0.03 µM is 239%.

Consider `CC(C)(C)CC(=O)Nc1ccc(NCc2ccc3c(c2)OCO3)nc1N1CCCC1` [Compound 14, N-{6-[(Benzo[1,3]dioxol-5-ylmethyl)-amino]-2-pyrrolidin-1-yl-pyridin-3-yl}-3,3-dimethyl-butyramide], for which the activity at 0.03 µM amounted to 155%. Under `N#Cc1ccc(CNc2ccc(NC(=O)Cc3cc(F)cc(F)c3)c(N3CCCC3)n2)cc1` [Compound 17, N-[6-(4-Cyano-benzylamino)-2-pyrrolidin-1-yl-pyridin-3-yl]-2-(3,5-difluoro-phenyl)-acetamide] stands 490%; under `COc1ccc(CNc2ccc(NC(=O)Cc3cc(F)cc(F)c3)c(N3CCCC3)n2)cc1` [Compound 19], 842%.

The values are drawn from US20110039896A1, “NOVEL 2-PYRROLIDINYL-3-AMIDO-6-AMINO-PYRIDINE DERIVATIVES USEFUL AS POTASSIUM CHANNEL ACTIVATORS” (NeuroSearch A/S, priority 2007, published 2011).
